Experimental data taken from article PMC5597618, “Identification and characterization of the novel reversible and selective cathepsin X inhibitors” (Scientific Reports, 2017).

Tests used:
Cathepsin S = target: T1, Cathepsin S (Homo sapiens, UniProt P25774); assay: Ki against cathepsin S (Z-VVR-AMC); type: biochemical; conditions: SigmaPlot at 3 different substrate concentrations; pH 6.5
T1 construct: made in house; host or cells: Pichia pastoris
Protocol: (§1) Recombinant or native human cathepsins were used: recombinant cathepsin X and cathepsin S were expressed in Pichia pastoris, recombinant cathepsins B and L in E. coli, [43], native cathepsin H was isolated from human liver. Assay buffers for determining activities of cathepsins X and L consisted of 100 mM sodium acetate buffer, pH 5.5, for cathepsins H, S and B (endopeptidase activity) of 100 mM phosphate buffer pH 6.8, 6.5 and 6.0, respectively and for cathepsin B (exopeptidase activity) of 60 mM acetate buffer pH 5.0. Each assay buffer contained 0.01% Triton X-100 to prevent false positive inhibition due to aggregation of compounds[45], 5 mM cysteine, 1.5 mM EDTA and 0.1% PEG 8000. Enzymes were activated at 37 °C for 5 min before the assays.
(§2) Ki was determined by measuring the initial rate of hydrolysis at three different substrate concentrations (Supplementary Table S2) in the presence of seven different compound concentrations (0, 20, 40, 60, 80, 100 and 200 μM). 90 μL of the activated cathepsin was added to a black 96-well plate with 5 μL of the substrate and 5 μL of the compound. Formation of the fluorescent degradation product was monitored continuously at 460 nm ± 10 nm with excitation at 380 nm ± 20 nm (for AMC substrates) and, as noted above for Abz substrates, at 37 °C. All measurements were performed twice and in duplicate. The resulting data were analyzed by non-linear regression using the software SigmaPlot®, Enzyme Kinetics Module™ 1.3 and were fitted to the equation v = v max [S]/([S] (1 + [I]/αK i ) + K m (1 + [I]/K i )) (first group of compounds). For Ki determination against cathepsin X for the compounds from the second group, progress curves in the absence and presence of each putative inhibitor were fitted to the reaction mechanism presented in Fig. 3b. In this case the resulting data as well as reactivation curves were fitted to the equation system presented in Fig. 3c using ENZO application. For calculation of kinetic parameters from reaction progress curves the fluorescence coefficient for conversion of arbitrary fluorescence units to concentration was first determined. The fluorescence coefficient was calculated as the slope from the plot of initial substrate concentration vs. height of the plateau of the progress curve after complete hydrolysis of increasing concentrations of substrate, using linear regression.
(§3) Supplementary Table S2. Substrates used for the various cathepsins and their concentrations […]
(§4) Enzyme Substrate Concentration (µM) Reference/Company cathepsin X Abz-FEK(Dnp)-OH 3.25, 6.5, 13 Puzer et al.3 cathepsin B - endopept. Z-RR-AMC 60, 180, 360 Bachem cathepsin B - exopept. Abz-GIVRAK(Dnp)-OH 1, 3, 6 Bachem cathepsin S Z-VVR-AMC 0.5, 1, 1.5 Biomol cathepsin L Z-FR-AMC 0.5, 1, 4 Bachem cathepsin H Z-R-AMC 20, 80, 160 Biomol […]

PC-12 cells = assay: Cytotoxicity assay (MTS) in PC-12 cells; type: cell-based, rat; conditions: up to 10 μM, 24 and 48 hours
Protocol: (§5) Human prostate cancer cell line PC-3 cells (obtained from ATCC, Manassas, USA; ATCC Number: CRL-1435) were cultured in F-12 (Gibco) and Advanced DMEM (Gibco) (1:1) with 10% FBS, 1% penicillin/streptomycin and 1% L-glutamine. Rat pheochromocytoma PC-12 cells (obtained from ATCC, Manassas, USA; ATCC Number: CRL-1721) were cultured in Advanced DMEM (Gibco) with 5% FBS, 10% heat-inactivated horse serum, 1% penicillin/streptomycin and 1% L-glutamine.
6.5 × 10^4 PC-3 cells/ml were seeded in a 96-well plate. PC-12 cells were seeded on poly-L-lysine (Sigma) coated plates in serum-free medium at a concentration of 4 × 10^4/well. Cells were treated with various concentrations of compounds (1, 2.5, 5 and 10 μM) for 24 or 48 hours. Cytotoxicity was determined with MTS reagent (CellTiter 96 Aqueous One Solution Cell Proliferation Assay, Promega) and A492 measured after 1 hour.

[1] = target: T2, cathepsin X in PC-12 cell lysates (Rattus norvegicus, UniProt Q9R1T3); assay: Cathepsin X activity in PC-12 cell lysates; type: cell-based; conditions: 10 μM
T2 construct: endogenous in cells; host or cells: PC-12
Protocol: To detect cathepsin X activity in cell lysates, 95 μL of activated cell lysates (0.2 mg/mL total protein in assay buffer) were added to a black 96-well plate containing 5 μL of the substrate. The further procedure was the same as above. In some experiments lysates of non-treated cells were pre-incubated with 10 μM of compounds for 30 minutes and then activity was measured as described above.
For testing the enzyme activity in cell lysates, cells were treated with 10 μM of compounds. After 24 hours lysates were prepared in 50 mM Na acetate buffer pH 5.5 with 1 mM EDTA, 100 mM NaCl and 0.25% Triton X-100. Total protein concentration was determined by DC Protein Assay (Bio Rad) according to the instructions.

PC-3 cells = assay: Real time cell migration assay (xCELLigence, CIM plates); type: cell-based, human
Protocol: as §5
Cell migration assay was performed on a Real-Time Cell Analyzer Dual Plate (RTCA DP) Instrument, xCELLigence System (ACEA Biosciences). CIM plates were coated with fibronectin (10 μg/ml, BD Biosciences) on the down and upper side of the microporous PET membrane for 30 min at room temperature and 2 hours at 37 °C, respectively. Excess fibronectin was removed and wells washed with phosphate buffer saline (PBS). Compounds (10 μM) were added to the complete media (lower chambers) or serum-free media (upper chambers). 0.1% DMSO was used as a control. 2 × 10^4 cells were plated per well. In additional experimental setting, inhibitors were added only to the upper chambers 3 hours after experiment started in order to measure their impact only on the cell migration and not the adhesion. Impedance data, reported as cell index, were measured continuously every 15 min for 72 hours and then analyzed with the RTCA Software (ACEA Biosciences, Inc.). Results are normalized to cells treated with DMSO.

Cathepsin H = target: T3, Cathepsin H (Homo sapiens, UniProt P09668); assay: Ki against cathepsin H (Z-R-AMC); type: biochemical; conditions: SigmaPlot at 3 different substrate concentrations; pH 6.8
T3 construct: native cathepsin H was isolated from human liver; from tissue; host or cells: human liver
Protocol: as §1, §2, §3, §4

cathepsin X = cathepsin X (Homo sapiens, UniProt Q9UBR2); assay: Determination of Ki values and inhibition mechanism against cathepsin X (Abz-FEK(Dnp)-OH substrate); type: biochemical; design: made in house; host or cells: Pichia pastoris; conditions: second group
Protocol: as §1, §2, §3, §4

cathepsin X, sequence (Q9UBR2 62-303): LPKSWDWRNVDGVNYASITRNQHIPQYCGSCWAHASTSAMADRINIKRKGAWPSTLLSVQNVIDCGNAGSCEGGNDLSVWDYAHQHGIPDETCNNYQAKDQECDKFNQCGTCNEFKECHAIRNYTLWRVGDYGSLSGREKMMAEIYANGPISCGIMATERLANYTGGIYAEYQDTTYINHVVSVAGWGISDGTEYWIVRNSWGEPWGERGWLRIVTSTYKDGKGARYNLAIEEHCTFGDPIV
T3 sequence (P09668 116-335 limits assumed, other chains not shown): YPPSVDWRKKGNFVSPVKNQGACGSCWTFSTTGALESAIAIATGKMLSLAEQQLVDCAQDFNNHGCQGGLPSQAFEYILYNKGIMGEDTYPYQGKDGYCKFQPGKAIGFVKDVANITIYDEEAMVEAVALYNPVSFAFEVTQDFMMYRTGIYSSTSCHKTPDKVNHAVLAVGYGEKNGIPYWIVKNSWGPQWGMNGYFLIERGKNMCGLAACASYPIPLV
T1 sequence (P25774 115-331): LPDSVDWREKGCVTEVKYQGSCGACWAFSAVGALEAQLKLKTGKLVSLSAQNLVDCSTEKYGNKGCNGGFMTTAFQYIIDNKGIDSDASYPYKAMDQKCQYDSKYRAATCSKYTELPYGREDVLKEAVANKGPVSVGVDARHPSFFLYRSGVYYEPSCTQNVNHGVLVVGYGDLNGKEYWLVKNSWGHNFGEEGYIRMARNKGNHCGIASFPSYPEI
T2 sequence (Q9R1T3 64-306): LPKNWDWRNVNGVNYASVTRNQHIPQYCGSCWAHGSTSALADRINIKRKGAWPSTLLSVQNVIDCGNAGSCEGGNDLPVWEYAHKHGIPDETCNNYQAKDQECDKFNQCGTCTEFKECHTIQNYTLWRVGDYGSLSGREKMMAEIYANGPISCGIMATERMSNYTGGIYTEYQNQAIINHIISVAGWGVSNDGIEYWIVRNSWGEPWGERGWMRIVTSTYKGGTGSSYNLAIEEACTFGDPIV

With `CC(C)n1cnnc1SCC(=O)c1ccc2c(c1)OCCO2` [Compound 22, 1-(2,3-Dihydrobenzo[b][1,4]dioxin-6-yl)-2-((4-isopropyl-4H-1,2,4-triazol-3-yl)thio)ethan-1-one] the “Ki Cathepsin S” value (Cathepsin S) was “n.i”, the “cytotoxicity to PC-12 cells” value (PC-12 cells) was “not cytotoxic” and the “inhibition of cathepsin X activity in PC-12 cell lysates” value [1] was “most potent”. The inhibition at 10 µM (PC-3 cells; Homo sapiens, PC-3, 10 μM, compound in upper and bottom compartments, vs DMSO) was 15 to 30%, the “inhibition of PC-3 cell migration, alternative setting excluding adhesion” value (PC-3 cells; compound only in upper compartment, added 3 hours after seeding) was “inhibits migration” and the Ki (Cathepsin H) was over 1000 µM. For the same molecule, the Inhibition mechanism (cathepsin X; ENZO) was “competitive” and the Ki (cathepsin X; progress curve analysis with ENZO) was 2.45 ± 0.05 µM.
